# Patent US20240218022A1, “ANTI-VISTA MACROCYCLIC PEPTIDES AND COMPOSITIONS” (BRISTOL-MYERS SQUIBB COMPANY, priority 2022, published 2024)
# Starred links: 1 amine or outer side, 2 acyl side, 3 side chain; linkers in the order of their positions; H or OH if unused. Positions of bridges follow the written chain, without caps; N, C: chain ends. Non-standard residues stand in square brackets, D forms with d. Residues, ends and D or L forms follow the SMILES beside them. ξ: configuration not given here. γGlu = O=C(O)[C@H](CCC(=O)[*:2])N[*:1]; NMeIle(3ξ) = CCC(C)[C@H](NC)C(=O)O; Tic = O=C(O)[C@@H]1Cc2ccccc2CN1; Ahp(2) = CCCCC[C@H](N)C(=O)O; Tle = CC(C)(C)[C@H](N)C(=O)O; NMeS = CN[C@@H](CO)C(=O)O; NHexGly = CCCCCCNCC(=O)O; NMeA = CN[C@@H](C)C(=O)O; Nle = CCCC[C@H](N)C(=O)O; Aun = NCCCCCCCCCCC(=O)O; AEEA = NCCOCCOCC(=O)O
# Target: T1, mouse VISTA (mVISTA) (Mus musculus, UniProt Q9D659)
# T1 construct: expressed in transfected cells; host or cells: Human embryonic kidney 293T cells
# T1 sequence (Q9D659 33-308): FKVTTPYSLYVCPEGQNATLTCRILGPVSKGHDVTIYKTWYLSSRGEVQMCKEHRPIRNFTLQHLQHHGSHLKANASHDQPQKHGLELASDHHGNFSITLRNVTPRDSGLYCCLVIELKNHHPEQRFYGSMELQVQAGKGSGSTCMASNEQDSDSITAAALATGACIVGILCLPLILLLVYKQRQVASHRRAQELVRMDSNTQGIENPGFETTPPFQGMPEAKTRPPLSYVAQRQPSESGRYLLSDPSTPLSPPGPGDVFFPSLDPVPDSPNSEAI
# Assay: Cell-Based Binding High-Content Assay For mVISTA (HC CBA mVISTA)
# Conditions: read-out: HC CBA mVISTA IC50
# In short: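 mVISTA-293T, 4,000 cells/well; cpd ± washout step; biotin-peptide 2 nM final, 30 min RT; SA-Alexa 647 30 min; formaldehyde/Hoechst fix; HCS imaging; 4PL IC50.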
row,Structure (SMILES),IC50 [nM]
1,CCCCCCN1CC(=O)N[C@@H](Cc2ccc(O)cc2)C(=O)N[C@@H](CCCC)C(=O)N[C@@H](CC(N)=O)C(=O)N[C@@H](CCCNC(=N)N)C(=O)N[C@@H](CC(C)C)C(=O)N[C@@H](CCCCC)C(=O)N2CCC[C@H]2C(=O)N[C@@H](C(C)(C)C)C(=O)N[C@@H](CO)C(=O)N[C@H](C(=O)NCCOCCOCC(=O)N[C@@H](CCC(=O)NCCOCCOCC(=O)NCCCCCCCCCCC(=O)O)C(=O)O)CSCC(=O)N[C@@H](Cc2ccccc2)C(=O)N[C@@H](Cc2c[nH]c3ccccc23)C(=O)N[C@@H](CC(=O)O)C1=O [compound 2243] ({CH2CO}-FWD[NHexGly]Y[Nle]NRL[Ahp(2)]P[Tle]SC[AEEA][γGlu][AEEA][Aun]-OH; thioether N-14),38.9
2,CCCCCCN1CC(=O)N[C@@H](Cc2ccc(O)cc2)C(=O)N[C@@H](CCCC)C(=O)N[C@@H](CC(N)=O)C(=O)N[C@@H](CCCNC(=N)N)C(=O)N2Cc3ccccc3C[C@H]2C(=O)N[C@@H](CCCCC)C(=O)N2CCC[C@H]2C(=O)N[C@@H](C(C)(C)C)C(=O)N[C@@H](CO)C(=O)N[C@H](C(=O)NCCOCCOCC(=O)N[C@@H](CCC(=O)NCCOCCOCC(=O)NCCCCCCCCCCC(=O)O)C(=O)O)CSCC(=O)N[C@@H](Cc2ccccc2)C(=O)N[C@@H](Cc2c[nH]c3ccccc23)C(=O)N[C@@H](CC(=O)O)C1=O [compound 2244] ({CH2CO}-FWD[NHexGly]Y[Nle]NR[Tic][Ahp(2)]P[Tle]SC[AEEA][γGlu][AEEA][Aun]-OH; thioether N-14),32.2
3,CCCCCCN1CC(=O)N[C@@H](Cc2ccc(O)cc2)C(=O)N[C@@H](CCCC)C(=O)N[C@@H](CC(N)=O)C(=O)N[C@@H](CCCNC(=N)N)C(=O)N(C)[C@@H](CO)C(=O)N[C@@H](CCCCC)C(=O)N2CCC[C@H]2C(=O)N[C@@H](C(C)(C)C)C(=O)N[C@@H](CO)C(=O)N[C@H](C(=O)NCCOCCOCC(=O)N[C@@H](CCC(=O)NCCOCCOCC(=O)NCCCCCCCCCCC(=O)O)C(=O)O)CSCC(=O)N[C@@H](Cc2ccccc2)C(=O)N[C@@H](Cc2c[nH]c3ccccc23)C(=O)N[C@@H](CC(=O)O)C1=O [compound 2245] ({CH2CO}-FWD[NHexGly]Y[Nle]NR[NMeS][Ahp(2)]P[Tle]SC[AEEA][γGlu][AEEA][Aun]-OH; thioether N-14),27.8

# Results, then the compound that gave them:
row,IC50 [nM],Structure (SMILES)
1,47,CCCCCCN1CC(=O)N[C@@H](Cc2ccc(O)cc2)C(=O)N[C@@H](CCCC)C(=O)N[C@@H](CC(N)=O)C(=O)N[C@@H](CCCNC(=N)N)C(=O)N(C)[C@@H](C(C)CC)C(=O)N[C@@H](CCCCC)C(=O)N2CCC[C@H]2C(=O)N[C@@H](C(C)(C)C)C(=O)N[C@@H](CO)C(=O)N[C@H](C(=O)NCCOCCOCC(=O)N[C@@H](CCC(=O)NCCOCCOCC(=O)NCCCCCCCCCCC(=O)O)C(=O)O)CSCC(=O)N[C@@H](Cc2ccccc2)C(=O)N[C@@H](Cc2c[nH]c3ccccc23)C(=O)N[C@@H](CC(=O)O)C1=O (some centres unmarked) [compound 2246] ({CH2CO}-FWD[NHexGly]Y[Nle]NR[NMeIle(3ξ)][Ahp(2)]P[Tle]SC[AEEA][γGlu][AEEA][Aun]-OH; thioether N-14)
2,29.6,CCCCCCN1CC(=O)N[C@@H](Cc2ccc(O)cc2)C(=O)N[C@@H](CCCC)C(=O)N[C@@H](CC(N)=O)C(=O)N[C@@H](CCCNC(=N)N)C(=O)N(C)[C@@H](C)C(=O)N[C@@H](CCCCC)C(=O)N2CCC[C@H]2C(=O)N[C@@H](C(C)(C)C)C(=O)N[C@@H](CO)C(=O)N[C@H](C(=O)NCCOCCOCC(=O)N[C@@H](CCC(=O)NCCOCCOCC(=O)NCCCCCCCCCCC(=O)O)C(=O)O)CSCC(=O)N[C@@H](Cc2ccccc2)C(=O)N[C@@H](Cc2c[nH]c3ccccc23)C(=O)N[C@@H](CC(=O)O)C1=O [compound 2247] ({CH2CO}-FWD[NHexGly]Y[Nle]NR[NMeA][Ahp(2)]P[Tle]SC[AEEA][γGlu][AEEA][Aun]-OH; thioether N-14)
